Here are results for 14 compounds from patent US10689367B2, “Triazole pyridyl compounds as agonists of the APJ receptor” (AMGEN INC., priority 2016, dated 2020).

In the experiment the target is human APJ receptor (Homo sapiens (Human), UniProt P35414). Description: [35S]GTPγS binding assay on membranes from CHO cells stably expressing human APJ receptor. Format: biochemical. To be noted: membranes of CHO cells stably expressing human APJ receptor, read-out: Activity hAPJ SPA EC50 IP. As for the experimental part: The human APJ receptor was cloned by polymerase chain reaction and the gene encoding the receptor was subcloned in pFLAG-CMV™-3 expression vector (Sigma, Saint Louis, Mo. USA) in-house at Amgen. A GTPγS binding assay was performed on membranes prepared from CHO cells stably expressing human APJ receptor. The optimum experimental conditions for the concentrations of GDP, MgCl2, and NaCl in the assay buffer were initially determined. […] Incubation was at RT for 90 min and the microplate was read using a ViewLux™ ultra HTS Microplate Imager (PerkinElmer, Inc.). All the results presented are means of several independent experiments and analyzed by non-linear regression methods using the commercially available program Prism (GraphPad, San Diego, Calif.) providing the EC50 values detailed in Table 27.
Chain of human APJ receptor (P35414 whole entry): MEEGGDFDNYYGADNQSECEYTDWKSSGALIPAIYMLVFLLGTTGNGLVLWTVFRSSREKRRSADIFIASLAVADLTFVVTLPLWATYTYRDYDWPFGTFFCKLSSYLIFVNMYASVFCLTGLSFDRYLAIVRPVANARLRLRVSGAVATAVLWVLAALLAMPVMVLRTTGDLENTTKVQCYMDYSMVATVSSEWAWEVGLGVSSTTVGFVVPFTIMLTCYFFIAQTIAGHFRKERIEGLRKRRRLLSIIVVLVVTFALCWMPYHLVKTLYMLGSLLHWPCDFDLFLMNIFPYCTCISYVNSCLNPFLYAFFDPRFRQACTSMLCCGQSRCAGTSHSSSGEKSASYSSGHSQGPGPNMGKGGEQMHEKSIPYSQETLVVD
In the case of `COc1cccc(-c2nnc(NS(=O)(=O)[C@@H](C)[C@H](C)c3ncc(Cl)cn3)n2[C@H](c2conc2C)C2CC2)n1` (mixture of isomers) [Example 228.0, (2S,3R)-3-(5-chloro-2-pyrimidinyl)-N-(4-((S)-cyclopropyl(3-methyl-1,2-oxazol-4-yl)methyl)-5-(6-methoxy-2-pyridinyl)-4H-1,2,4-triazol-3-yl)-2-butanesulfonamide and (2S,3R)-3-(5-chloro-2-pyrimidinyl)-N-(4-((R)-cyclopropyl(3-methyl-1,2-oxazol-4-yl)methyl)-5-(6-methoxy-2-pyridinyl)-4H-1,2,4-triazol-3-yl)-2-butanesulfonamide], the EC50 is 0.88 nM.

For the compound `CO[C@H](c1ncc(Cl)cn1)[C@H](C)S(=O)(=O)Nc1nnc(-c2cncc(C)c2)n1C[C@H]1CCCCO1` (mixture of isomers) [Example 299.0, (1R,2S)-1-(5-chloropyrimidin-2-yl)-1-methoxy-N-(5-(5-methylpyridin-3-yl)-4-(((R)-tetrahydro-2H-pyran-2-yl)methyl)-4H-1,2,4-triazol-3-yl)propane-2-sulfonamide and (1R,2S)-1-(5-chloropyrimidin-2-yl)-1-methoxy-N-(5-(5-methylpyridin-3-yl)-4-(((S)-tetrahydro-2H-pyran-2-yl)methyl)-4H-1,2,4-triazol-3-yl)propane-2-sulfonamide], the EC50 is 120 nM. Then `COc1cccc(-c2nnc(NS(=O)(=O)[C@@H](C)[C@H](C)c3ncc(Cl)cn3)n2[C@@H](C)c2ccon2)n1` (racemic) [Example 267.0, (2S,3R)-3-(5-chloropyrimidin-2-yl)-N-(4-((R)-1-(isoxazol-3-yl)ethyl)-5-(6-methoxypyridin-2-yl)-4H-1,2,4-triazol-3-yl)butane-2-sulfonamide or (2S,3R)-3-(5-chloropyrimidin-2-yl)-N-(4-((S)-1-(isoxazol-3-yl)ethyl)-5-(6-methoxypyridin-2-yl)-4H-1,2,4-triazol-3-yl)butane-2-sulfonamide], with 4.2 nM.

On to `COc1cccc(-c2nnc(NS(=O)(=O)[C@@H](C)[C@H](C)c3ncc(Cl)cn3)n2[C@@H](C)c2ccon2)n1` (racemic) [Example 268.0, (2S,3R)-3-(5-chloropyrimidin-2-yl)-N-(4-((R)-1-(isoxazol-3-yl)ethyl)-5-(6-methoxypyridin-2-yl)-4H-1,2,4-triazol-3-yl)butane-2-sulfonamide or (2S,3R)-3-(5-chloropyrimidin-2-yl)-N-(4-((S)-1-(isoxazol-3-yl)ethyl)-5-(6-methoxypyridin-2-yl)-4H-1,2,4-triazol-3-yl)butane-2-sulfonamide], for which the 50% effective concentration (EC50) was determined as 2.7 nM. Next, `COc1cccc(-c2nnc(NS(=O)(=O)[C@@H](C)[C@@H](OC(C)C)c3ncc(C)cn3)n2C[C@H]2CCCO2)n1` (racemic) [Example 277.0, (1S,2S)-1-isopropoxy-N-(5-(6-methoxypyridin-2-yl)-4-(((R)-tetrahydrofuran-2-yl)methyl)-4H-1,2,4-triazol-3-yl)-1-(5-methylpyrimidin-2-yl)propane-2-sulfonamide or (1S,2S)-1-isopropoxy-N-(5-(6-methoxypyridin-2-yl)-4-(((S)-tetrahydrofuran-2-yl)methyl)-4H-1,2,4-triazol-3-yl)-1-(5-methylpyrimidin-2-yl)propane-2-sulfonamide]: 14 nM; `COc1cccc(-c2nnc(NS(=O)(=O)[C@@H](C)[C@@H](OC(C)C)c3ncc(C)cn3)n2C[C@H]2CCCO2)n1` (racemic) [Example 278.0, (1S,2S)-1-isopropoxy-N-(5-(6-methoxypyridin-2-yl)-4-(((R)-tetrahydrofuran-2-yl)methyl)-4H-1,2,4-triazol-3-yl)-1-(5-methylpyrimidin-2-yl)propane-2-sulfonamide or (1S,2S)-1-isopropoxy-N-(5-(6-methoxypyridin-2-yl)-4-(((S)-tetrahydrofuran-2-yl)methyl)-4H-1,2,4-triazol-3-yl)-1-(5-methylpyrimidin-2-yl)propane-2-sulfonamide]: 16 nM; `COc1cccc(-c2nnc(NS(=O)(=O)[C@@H](C)[C@H](C)c3ncc(Cl)cn3)n2C[C@H]2CCCO2)n1` (racemic) [Example 281.0, (2S,3R)-3-(5-chloropyrimidin-2-yl)-N-(5-(6-methoxypyridin-2-yl)-4-(((R)-tetrahydrofuran-2-yl)methyl)-4H-1,2,4-triazol-3-yl)butane-2-sulfonamide or (2S,3R)-3-(5-chloropyrimidin-2-yl)-N-(5-(6-methoxypyridin-2-yl)-4-(((S)-tetrahydrofuran-2-yl)methyl)-4H-1,2,4-triazol-3-yl)butane-2-sulfonamide]: 110 nM. As to `COc1cccc(-c2nnc(NS(=O)(=O)[C@@H](C)[C@H](C)c3ncc(Cl)cn3)n2C[C@H]2CCCO2)n1` (racemic) [Example 282.0, (2S,3R)-3-(5-chloropyrimidin-2-yl)-N-(5-(6-methoxypyridin-2-yl)-4-(((R)-tetrahydrofuran-2-yl)methyl)-4H-1,2,4-triazol-3-yl)butane-2-sulfonamide or (2S,3R)-3-(5-chloropyrimidin-2-yl)-N-(5-(6-methoxypyridin-2-yl)-4-(((S)-tetrahydrofuran-2-yl)methyl)-4H-1,2,4-triazol-3-yl)butane-2-sulfonamide], the EC50 was 54 nM. As for `COc1cccc(-c2nnc(NS(=O)(=O)[C@@H](C)[C@H](OC)c3ncc(Cl)cn3)n2C[C@H]2CCCCO2)n1` (racemic) [Example 287.0, (1R,2S)-1-(5-chloropyrimidin-2-yl)-1-methoxy-N-(5-(6-methoxypyridin-2-yl)-4-(((R)-tetrahydro-2H-pyran-2-yl)methyl)-4H-1,2,4-triazol-3-yl)propane-2-sulfonamide or (1R,2S)-1-(5-chloropyrimidin-2-yl)-1-methoxy-N-(5-(6-methoxypyridin-2-yl)-4-(((S)-tetrahydro-2H-pyran-2-yl)methyl)-4H-1,2,4-triazol-3-yl)propane-2-sulfonamide], the EC50 was 5.9 nM. As for `COc1cccc(-c2nnc(NS(=O)(=O)[C@@H](C)[C@H](OC)c3ncc(Cl)cn3)n2C[C@H]2CCCCO2)n1` (racemic) [Example 288.0, (1R,2S)-1-(5-chloropyrimidin-2-yl)-1-methoxy-N-(5-(6-methoxypyridin-2-yl)-4-(((R)-tetrahydro-2H-pyran-2-yl)methyl)-4H-1,2,4-triazol-3-yl)propane-2-sulfonamide or (1R,2S)-1-(5-chloropyrimidin-2-yl)-1-methoxy-N-(5-(6-methoxypyridin-2-yl)-4-(((S)-tetrahydro-2H-pyran-2-yl)methyl)-4H-1,2,4-triazol-3-yl)propane-2-sulfonamide], the EC50 is 3.3 nM. Next, `COc1cccc(-c2nnc(NS(=O)(=O)[C@@H](C)[C@H](C)c3ncc(Cl)cn3)n2[C@H](C)c2cnn(C)c2)n1` (racemic) [Example 297.0, (2S,3R)-3-(5-chloropyrimidin-2-yl)-N-(5-(6-methoxypyridin-2-yl)-4-((R)-1-(1-methyl-1H-pyrazol-4-yl)ethyl)-4H-1,2,4-triazol-3-yl)butane-2-sulfonamide or (2S,3R)-3-(5-chloropyrimidin-2-yl)-N-(5-(6-methoxypyridin-2-yl)-4-((S)-1-(1-methyl-1H-pyrazol-4-yl)ethyl)-4H-1,2,4-triazol-3-yl)butane-2-sulfonamide]: 4.3 nM. Next, `COc1cccc(-c2nnc(NS(=O)(=O)[C@@H](C)[C@H](C)c3ncc(Cl)cn3)n2[C@H](C)c2cnn(C)c2)n1` (racemic) [Example 298.0, (2S,3R)-3-(5-chloropyrimidin-2-yl)-N-(5-(6-methoxypyridin-2-yl)-4-((R)-1-(1-methyl-1H-pyrazol-4-yl)ethyl)-4H-1,2,4-triazol-3-yl)butane-2-sulfonamide or (2S,3R)-3-(5-chloropyrimidin-2-yl)-N-(5-(6-methoxypyridin-2-yl)-4-((S)-1-(1-methyl-1H-pyrazol-4-yl)ethyl)-4H-1,2,4-triazol-3-yl)butane-2-sulfonamide]: 1.5 nM; `COc1cccc(-c2nnc(NS(=O)(=O)[C@@H](C)[C@H](OC)c3ncc(Cl)cn3)n2C[C@@H]2COCCO2)n1` (racemic) [Example 303.0, (1R,2S)-N-(4-(((R)-1,4-dioxan-2-yl)methyl)-5-(6-methoxypyridin-2-yl)-4H-1,2,4-triazol-3-yl)-1-(5-chloropyrimidin-2-yl)-1-methoxypropane-2-sulfonamide or (1R,2S)-N-(4-(((S)-1,4-dioxan-2-yl)methyl)-5-(6-methoxypyridin-2-yl)-4H-1,2,4-triazol-3-yl)-1-(5-chloropyrimidin-2-yl)-1-methoxypropane-2-sulfonamide]: 27 nM; `COc1cccc(-c2nnc(NS(=O)(=O)[C@@H](C)[C@H](OC)c3ncc(Cl)cn3)n2C[C@@H]2COCCO2)n1` (racemic) [Example 304.0, (1R,2S)-N-(4-(((R)-1,4-dioxan-2-yl)methyl)-5-(6-methoxypyridin-2-yl)-4H-1,2,4-triazol-3-yl)-1-(5-chloropyrimidin-2-yl)-1-methoxypropane-2-sulfonamide or (1R,2S)-N-(4-(((S)-1,4-dioxan-2-yl)methyl)-5-(6-methoxypyridin-2-yl)-4H-1,2,4-triazol-3-yl)-1-(5-chloropyrimidin-2-yl)-1-methoxypropane-2-sulfonamide]: 20 nM.
